These results are taken from patent publication US20150344822A1, “Decontaminant and Process for Decontamination of Chemicals from Infrastructural Materials” (priority 2014, published 2015).

“And” between values parts separate entries of the source, which are not always exact repeats. Identical values can stand only once. Like-named read-outs stand apart in the source and are kept apart here.

For data set [1] the following is noted: hazardous ingredient of the product; cited from earlier work.
For data set [2] the following is noted: cited from earlier work.
The next data set relates to rat. As to conditions: oral (rat); cited from earlier work.
A short description of data set [3]: Task 1A: surface adherence of contaminants on pipe materials, 7 days at 20-25° C. The data set is classed as physicochemical. The conditions noted are these: comparison of Tasks 1A, 1B, 1C.
For data set [4] the following is noted: product as supplied; cited from earlier work.
Data set [5] in a line: Task 2: efficacy of decontamination agents (extraction and subsequent rinses). As to conditions: for Aqueous concentration of mercury, Extraction: extractant hypochlorite (300 mg/L), mercury input 19530.00 mg/L, adhered 7 days, 20-25° C. The source says:
The pipe materials used for subtask 2 were DIE, DIW, PVC and copper. […] Types of interactions included scrubbing, flushing, recirculation, shaking and static equilibrium.
After equilibration, the contaminant was extracted using the various decontamination agents. […] Surfactant molecules have both hydrophilic and hydrophobic parts, and the most attractive place for them in water is at the surface where the forces of both attraction and repulsion to water can be satisfied. […] The aqueous solutions of these decontaminants were prepared using the available chemical decontaminants and diluting them to required concentration by adding DI water. Appropriate volume corrections were conducted for NaOCl considering available solution concentration of NaOCl received from the supplier.
(§1) The sample was introduced via a peristaltic pump by pneumatic nebulization into radio frequency plasma where energy transfer processes cause desolvation, atomization, and ionization. The ions were extracted from the plasma through a pumped vacuum interface and separated on the basis of their mass-to-charge ratio by a quadrupole mass spectrometer. The ions transmitted through the quadrupole were registered by a continuous dynode electron multiplier and the ion information was processed by a data handling system.

A short description of data set [6]: Task 1: removal of adhered chemicals by three de-ionized water rinses and extractant. As to conditions: for Aqueous concentration of mercury, Extraction: adherence at 4-6° C.; for Aqueous concentration, Extractant: after 24 hours; for Aqueous concentration, Extractant / Aqueous concentration of mercury, Extractant: 20-25° C.; for Aqueous concentration of mercury, Extractant: after 7 days, initial 22829.8 mg/L, extractant = chemical decontaminant of the present disclosure. As for the experimental part:
In Task 1, the pipes were rinsed immediately after the equilibrated solution was transferred into the analytical sample vials. Thereafter, de-ionized water at room temperature was used for rinsing the pipes. Three consecutive rinses were conducted using de-ionized water at room temperature. In case of aged black iron pipe, the aqueous solution was centrifuged before transferring to the sample vials to avoid entrainment of colloidal corroded iron particles in the solution. During the extraction step, the pipes were about half filled with the extraction solution and wrapped tightly. The 4″ diameter pipes were filled with 150 mL of extraction solution. The copper, PVC, and HDPE pipes were filled with 55 mL of extraction solution, while the epoxy and the aged metal pipes were filled with 85 mL of extraction solution. […] After shaking for 1 hour, the pipes were flipped in order to get contact with the entire inner surface of the pipe. The extraction solutions were transferred to the appropriate sample vial.
as §1
In this table, m0 and mi are the initial and final amounts of chemical in water.
Water rinse was done to remove the weakly-bound chemicals, while the strongly-bound chemicals, if any, were extracted with stronger solvents.

`CCCCOCCO` [Butyl cellosolve]: in data set [1], the PEL is on record as 25 mg/L and the TLV was 25 mg/L.
Take `COP(=O)(OC)OC=C(Cl)Cl` [Dichlorvos]: the figures for the Hydrolysis entry in data set [2] (at pH 4) and in data set [2] (at pH 9) were “slow” and “rapid”, respectively. The Half-life in data set [2] (between pH 4 and pH 9) was 20 to 80 h. Moreover, the LD50 entry in the data set on rat is “LD50 oral (rat) 56 to 80 mg/kg”.
For the molecule `COP(=O)(OC)O/C(C)=C/C(=O)N(C)C` [Dicrotophos], the entries for the “time after which decomposed” value in data set [2] (at 75° C.) and in data set [2] (at 90° C.) were 31 days and 7 days, respectively. In addition, the storage stability result in data set [2] (stored in glass or polythene containers up to 40° C.) was “stable”. Further, the LD50 result in the data set on rat is given as “Oral LD50 for rats is 16- 21 mg/kg”.
`O=C(O)CF` [fluoroacetate]: the “Adhesion coefficients under 7 days and room temperature condition versus 24 hours or low temperature conditions” value in data set [3] is “generally higher”.
With `OCl` [Sodium Hypochlorite, Sodium hypochlorite], the pH in data set [4] was approximately 13. The “Aqueous concentration of mercury, Extraction” value in data set [5] (COP (copper) pipe, listed as Hypochlorite) is 11.01 mg/L and 8.48 mg/L; in data set [5] (COP (copper) pipe, listed as hypochlorite), 8.5 mg/L and 11 mg/L; in data set [5] (DIE pipe), 133.91 mg/L and 136.16 mg/L; in data set [5] (DIW pipe, listed as Hypochlorite) it was 251.05 mg/L and 315.47 mg/L; in data set [5] (DIW pipe, listed as hypochlorite), 251 mg/L and 315 mg/L; in data set [5] (PVC pipe), 290.19 mg/L and 172.41 mg/L. Moreover, the “effectiveness in releasing / removing adhered mercury” value in data set [5] (mercury adhered on DIW and copper pipes) was “not effective”. Moreover, the “removal / recovery of contaminants compared with the other decontaminants tested” value in data set [5] (mercury and organophosphates, solid surfaces) is reported as “significantly less”.
As to Mercuric chloride [Mercury], the “Aqueous concentration of mercury, Extraction” value in data set [6] (Copper pipe, Mercury #1, initial 7737.5 mg/L) was 515.7 mg/L and 272.8 mg/L; in data set [6] (Copper pipe, Mercury #2, initial 28800.0 mg/L), 2930.0 mg/L and 2800.0 mg/L; in data set [6] (DIW pipe, Mercury #2, initial 28800.0 mg/L), 1520.0 mg/L and 2290.0 mg/L; in data set [6] (PVC pipe, Mercury #1, initial 7737.5 mg/L) it was 1.6 mg/L and 2.6 mg/L. Moreover, the “Aqueous concentration, Extractant” value in data set [6] (Copper pipe, Mercury #1, initial 8171.5 mg/L) was 702.4 mg/L and 559.3 mg/L; in data set [6] (Copper pipe, Mercury #2, initial 23950.0 mg/L), 1820.0 mg/L and 2140.0 mg/L; in data set [6] (DIW pipe, Mercury #1, initial 8171.5 mg/L), 684.6 mg/L and 914.1 mg/L. The “Aqueous concentration of mercury, Extractant” value is 7368.1 mg/L and 6413.5 mg/L in data set [6] (Copper pipe); 187.6 mg/L and 179.1 mg/L in data set [6] (DIE pipe); 9532.2 mg/L and 7156.1 mg/L in data set [6] (DIO pipe); 0.3 mg/L and 0.5 mg/L in data set [6] (HDPE pipe).
